Measurements taken from paper PMC3836662, “New Antimalarial Hits from Dacryodes edulis (Burseraceae) - Part I: Isolation, In Vitro Activity, In Silico “drug-likeness” and Pharmacokinetic Profiles” (PLoS ONE, 2013).
In brackets after ≈: the same amount, converted by molar mass. Entries after “also recorded” stand apart in the source; their conditions may differ. Read-outs that look alike come from different tables or passages of the source.

Key:
[1] = system: 3D7 (chloroquine-susceptible) strain of Plasmodium falciparum; experiment: Antiplasmodial screen, parasite lactate dehydrogenase (pLDH) assay, 3D7 strain; assay type: cell-based; conditions: for Activity against 3D7 IC95 / Activity against 3D7 IC50: P. falciparum 3D7, pLDH assay; for IC50: Plasmodium falciparum
Experimental: (§1) The 3D7 (MRA-102), and Dd2 (MRA-615) strains were kindly donated by BEI-Resources (MR4, Manassas, VA, USA), and maintained in continuous culture, with back up stored in liquid nitrogen.
(§2) The laboratory strains of P. falciparum were grown and maintained in culture using the method of Trager and Jensen with some modifications. All the chemicals except Albumax II (Gibco; Invitrogen, USA), were ordered from Sigma-Aldrich Inc (Germany). The cultures were monitored and parasitemia assessed using both fluorescence (acridine orange) and normal light (Giemsa stain) microscopes.
(§3) The antiplasmodial screen was carried out in 96-well microtitration plates as described by Desjardins et al. with some modifications. The different drug stock solutions were prepared by predisolving the powder in DMSO (200 µL for a final volume of 10 mL stock solution) and subsequently with the culture medium. The parasitaemia was measured using the parasite lactate dehydrogenase (pLDH) assay as previously described.
(§4) Each product was tested in triplicate, in two to three separate experiments, giving a total of six to nine repeats per product and per concentration tested. The IC50 and CC50 values obtained from the replicates were pooled and expressed as geometric mean IC50 and standard deviation. The different means were compared among themselves by independent samples t-test.

[2] = system: Dd2 (multidrug-resistant) strain of Plasmodium falciparum; experiment: Antiplasmodial screen, parasite lactate dehydrogenase (pLDH) assay, Dd2 strain; assay type: cell-based; conditions: for Activity against Dd2 IC95 / Activity against Dd2 IC50: P. falciparum Dd2, pLDH assay; for IC50: Plasmodium falciparum
Experimental: as §1, §2, §3, §4

[3] = Cytotoxicity on LLC-MK2 cells; assay type: cell-based, monkey; conditions: monkey, LLC-MK2 cells, read-out: Cytotoxicity against LLC-MK2 CC50
Experimental: (§5) The cytotoxicity of the extracts and pure compounds were estimated on LLC-MK2 monkey kidney epithelial cells as previously described with some modifications. The cell line was ordered from the American Type Culture Collection (ATCC, Manassas, Virginia, USA) and maintained in continuous culture.
as §4
(§6) The selectivity index defined as SI = CC50/IC50 was equally considered for compounds with mild cytotoxicity with SI<10 for toxic products. Based on these cut-off values, all products isolated from D. edulis in the present study were non-toxic against the LLC-MK2 cell-line.

[4] = system: LLC-MK2 monkey kidney epithelial cells; experiment: Cytotoxicity on LLC-MK2 cells; assay type: cell-based; conditions: SI = CC50/IC50, LLC-MK2 vs Dd2
Experimental: as §5, §4, §6

Dd2 [5] = experiment: Stage-specific activity: variation of IC50 with exposure time, sorbitol-synchronized ring stage culture; assay type: cell-based; conditions: Plasmodium falciparum
Source text: As a preliminary study towards the understanding of the mechanisms of action of the active drugs, the stage-specific activity of the products was studied by investigation of the variation in IC50 values with exposure time.
Figure 2 Variation of IC50 against Dd2 with exposure time. […] The IC50 values presented were obtained from two distinct experiments run in duplicate each.

Dd2 [6] = experiment: Drug-interaction study, fixed-ratio combinations, FIC / Combination Index / isobologram; assay type: cell-based, Plasmodium falciparum; conditions: for Increase of activity on combining DES4 and quinine: DES4 plus quinine
Experimental: From the results obtained with individual drugs, a stock solution of 32 x IC50 of each drug was prepared and used in preparing a series of six combinations ([1]–[6]) containing 5:0, 4:1, 3:2, 2:3, 1:4 and 0:5 proportions volume:volume of Drug A versus Drug B respectively. Each of these formulations were then tested and their different inhibitory concentrations determined separately.
IC50 values obtained for the different drug mixtures were used to calculate the Fractional Inhibitory Concentration (FIC) for each drug as described previously. FIC-A for example measures how much the presence of Drug B affects the activity of Drug A in the mixture, and vis versa.
FIC−A=IC50−A(comb.)/IC50−A(alone)
FIC−B=IC50−B(comb.)/IC50−B(alone)
A graph was constructed with the axes representing the mean FIC of linear scales, with mean FIC-A on the x axis and FIC-B on the y axis. When the combination is additive, the isobole which is the line joining the points that represent all the (x, y) points is straight. Synergistic combinations give concave isoboles, and antagonistic combinations give convex isoboles.
CI values were therefore calculated separately for both the drugs present in combinations 2 through 5; combinations 1 and 6 containing Drug A and Drug B alone. In addition to analyzing the result obtained with each drug combination formula, an overall mean CI value for the four combinations was determined to conclude on the interaction patterns of the two drugs being tested. Synergy or antagonism was defined as a mean CI< or >1, respectively, and lack of interaction (also termed additivity) defined as CI= 1 [21].
IC50 values were used to calculate the Fractional Inhibitory Concentration (FIC) for each drug as described previously. FIC-A measures how much the presence of a Drug B affects the activity of Drug-A in the mixture. […] Statistical significance was defined as p<0.05. A graph was constructed with the axes representing the mean FIC of linear scales, with mean FIC-A on the x-axis and FIC-B on the y-axis. When the combination is additive, the isobole which is the line joining the points that represent all the (x, y) points is straight. Synergistic combinations give concave isoboles, and antagonistic combinations give convex isoboles.
The overall mean CI value for the four combinations formulae was finally determined and synergy or antagonism between the two drugs in combination, defined as a mean CI< or >1, respectively, lack of interaction or additivity defined as CI = 1 [21].

[7] = 3D7, P. falciparum 3D7, pLDH assay, read-out: Activity against 3D7 IC50
[8] = DD2, P. falciparum Dd2, pLDH assay, read-out: Activity against Dd2 IC50
[9] = 3D7, read-out: Activity against 3D7 IC50, P. falciparum 3D7, pLDH assay
[10] = DES4 combined with quinine, Dd2
[11] = Dd2, synchronized ring stage, 24 hours exposure, read-out: IC50 against Dd2, exposure time 24 hours
[12] = Dd2, synchronized ring stage, 48 hours exposure, read-out: IC50 against Dd2, exposure time 48 hours

CO[C@H]1O[C@@H]2O[C@@]3(C)CC[C@H]4[C@H](C)CC[C@@H]([C@H]1C)[C@@]24OO3 [ART, artemether, reference compound]
Activity against 3D7 IC95 [1]: 0.08 ± 0.02 mg/L | IC50 [1, 7]: 0.02 ± 0.01 mg/L (≈ 0.067 µM) | Activity against Dd2 IC95 [2]: 0.12 ± 0.09 mg/L | IC50 [2, 8]: 0.03 ± 0.01 mg/L (≈ 0.101 µM)

C[C@@H]1O[C@@H](Oc2c(-c3ccc(O)c(O)c3)oc3cc(O)cc(O)c3c2=O)[C@H](O)[C@H](O)[C@H]1O [DES1, Quercitrin]
CC50 [3]: > 100 mg/L | Selectivity index/Dd2 [4]: > 44 | Activity against 3D7 IC50 [1]: 5.96 ± 0.51 mg/L | Activity against 3D7 IC95 [1]: 18.53 ± 3.13 mg/L | IC50 [1, 9]: < 10 mg/L | Activity against Dd2 IC50 [2]: below 10 µg/mL | Activity against Dd2 IC95 [2]: 23.82 ± 6.35 mg/L | IC50 (Dd2 [5]; DD2, 24 h, read-out: IC50 against Dd2, exposure time 24 hours): 1.41 mg/L (≈ 3.14 µM) | IC50 (Dd2 [5]; DD2, 48 h, read-out: IC50 against Dd2, exposure time 48 hours): 2.19 mg/L (≈ 4.88 µM)

C[C@@H]1O[C@@H](Oc2c(-c3ccc(O)cc3)oc3cc(O)cc(O)c3c2=O)[C@H](O)[C@H](O)[C@H]1O [DES2, Afzelin]
CC50 [3]: > 100 mg/L | Selectivity index/Dd2 [4]: > 5 | Activity against 3D7 IC95 [1]: 13.64 ± 0.48 mg/L | IC50 [1, 9]: 4.59 ± 0.21 mg/L (≈ 10.6 µM) | Activity against Dd2 IC50 [2]: inactive | Activity against Dd2 IC95 [2]: 35.03 ± 3.52 mg/L | IC50 ([2]; DD2, read-out: Activity against Dd2 IC50, P. falciparum Dd2, pLDH assay): 19.3 ± 1.56 mg/L (≈ 44.7 µM)

O=c1c(O)c(-c2ccc(O)c(O)c2)oc2cc(O)cc(O)c12 [DES3, Quercetin]
CC50 [3]: > 100 mg/L | Selectivity index/Dd2 [4]: > 17 | Activity against 3D7 IC50 [1]: 6.07 ± 0.34 mg/L | Activity against 3D7 IC95 [1]: 15.19 ± 3.88 mg/L | IC50 [1, 7]: < 10 mg/L | Activity against Dd2 IC50 [2]: 5.91 ± 0.97 mg/L | Activity against Dd2 IC95 [2]: 15.96 ± 4.79 mg/L | IC50 [2, 8]: < 10 mg/L

COC(=O)c1cc(O)c(O)c(O)c1 [DES4, methyl 3,4,5-trihydroxybenzoate]
CC50 [3]: > 100 mg/L | Selectivity index/Dd2 [4]: > 182 | Combination Index, overall value (Dd2 [6]; DES4 combined with artemether): 1.10 | Interaction pattern with artemether (Dd2 [6]; DES4 combined with artemether): additivity; also recorded: only additive effects | Combination Index, Combination 2 (Dd2 [6]; DES4 combined with quinine, Combination 2 (4:1), Dd2): 1.05 | Combination Index, mean value (Dd2 [6]; [10]): 0.65 | Interaction pattern with quinine (Dd2 [6]; [10]): synergy; also recorded: synergistic interactions | Increase of activity on combining DES4 and quinine (Dd2 [6]): 3 fold | Activity against 3D7 IC95 [1]: 2.58 ± 2.04 mg/L | IC50 [1, 7]: 0.37 ± 0.07 mg/L (≈ 2.01 µM) | Activity against Dd2 IC95 [2]: 5.89 ± 0.95 mg/L | IC50 (Dd2 [5]; [11]): 6.32 mg/L (≈ 34.3 µM) | IC50 (Dd2 [5]; [12]): 0.56 mg/L (≈ 3.04 µM)

CC[C@H](CCC(C)C1CCC2C3CC=C4C[C@@H](O[C@@H]5O[C@H](CO)[C@@H](O)[C@H](O)[C@H]5O)CC[C@]4(C)C3CC[C@]12C)C(C)C (stereo partly drawn) [DES5, sitosterol 3-O-β-D-glucopyranoside sterol]
CC50 ([3]; LLC-MK2 monkey kidney epithelial cells): > 100 mg/L | Selectivity index/Dd2 [4]: > 18 | Activity against 3D7 IC50 [1]: 1.90 ± 0.22 mg/L | Activity against 3D7 IC95 [1]: 4.38 ± 0.87 mg/L | Activity against 3D7 IC50 ([1]; listed as Sitosterol 3-O-β-D-glucopyranoside): below 10 µg/mL | Activity against Dd2 IC50 [2]: 5.34 ± 0.98 mg/L | Activity against Dd2 IC95 [2]: 21.35 ± 0.44 mg/L | IC50 [2, 8]: < 10 mg/L

C=C[C@H]1C[N@@]2CC[C@H]1C[C@H]2[C@H](O)c1ccnc2ccc(OC)cc12 [QN, Quinine sulphate, reference compound]
Increase of activity on combining DES4 and quinine (Dd2 [6]): 6 fold | Activity against 3D7 IC95 [1]: 0.48 ± 0.10 mg/L | IC50 [1, 7]: 0.13 ± 0.01 mg/L | Activity against Dd2 IC95 [2]: 0.38 ± 0.08 mg/L | IC50 [2, 8]: 0.12 ± 0.01 mg/L | IC50 (Dd2 [5]; [11]): 0.21 mg/L | IC50 (Dd2 [5]; [12]): 0.18 mg/L
